Experimental data taken from paper PMC9516332 (Frontiers in Oncology, 2022).
Where two headings read alike, the source gives them in different places.

What was measured:
[1] = test system: AP-1060 (ETV6-NTRK3); experiment: Cell viability assay; conditions: read-out: IC50 in cell proliferation assay
[2] = test system: 134 cancer cell lines; experiment: Cell viability assay (ATPlite, 72 hours), IC50 on cancer cell line panel

## C[C@H](Nc1ncnc2nc[nH]c12)c1cc2cccc(Cl)c2c(=O)n1-c1ccccc1 [duvelisib]
[1]
  IC50: 11.3 µM
[2]; HEC-6, read-out: IC50 in cell proliferation assay, HEC-6 cell line (EGFR p.A289V)
  IC50: > 31.6 µM
[2]; Homo sapiens, 769-P, read-out: IC50 in cell proliferation assay, cell line 769-P
  IC50: 31.1 µM
[2]; Homo sapiens, 786-0, read-out: IC50 in cell proliferation assay, cell line 786-O
  IC50: 14.2 µM
[2]; Homo sapiens, A 172, read-out: IC50 in cell proliferation assay, cell line A-172
  IC50: > 31.6 µM
[2]; Homo sapiens, A204, read-out: IC50 in cell proliferation assay, cell line A-204
  IC50: 1.19 µM
[2]; Homo sapiens, A498, read-out: IC50 in cell proliferation assay, cell line A-498
  IC50: 3.39 µM
[2]; Homo sapiens, A549, read-out: IC50 in cell proliferation assay, cell line A-549
  IC50: 23.9 µM
[2]; Homo sapiens, A704, read-out: IC50 in cell proliferation assay, cell line A-704
  IC50: > 31.6 µM
[2]; Homo sapiens, A-375, read-out: IC50 in cell proliferation assay, cell line A-375 (BRAF p.V600E)
  IC50: 23.4 µM
[2]; Homo sapiens, A-427, read-out: IC50 in cell proliferation assay, cell line A-427
  IC50: 14.9 µM
[2]; Homo sapiens, ACHN, read-out: IC50 in cell proliferation assay, cell line ACHN
  IC50: 7.17 µM
[2]; Homo sapiens, AN3-CA, read-out: IC50 in cell proliferation assay, cell line AN3-CA (FGFR2 p.N549K)
  IC50: 4.2 µM
[2]; Homo sapiens, ASPC1, read-out: IC50 in cell proliferation assay, cell line AsPC-1
  IC50: > 31.6 µM
[2]; Homo sapiens, AU565, read-out: IC50 in cell proliferation assay, cell line AU565 (ERBB2 amplification)
  IC50: 7.67 µM
[2]; Homo sapiens, BT-20, read-out: IC50 in cell proliferation assay, cell line BT-20
  IC50: 30 µM
[2]; Homo sapiens, BT-474, read-out: IC50 in cell proliferation assay, cell line BT-474 (ERBB2 amplification)
  IC50: 9.09 µM
[2]; Homo sapiens, BT-549, read-out: IC50 in cell proliferation assay, cell line BT-549
  IC50: 0.348 µM
[2]; Homo sapiens, BXPC-3, read-out: IC50 in cell proliferation assay, cell line BxPC-3
  IC50: 16.6 µM
[2]; Homo sapiens, C-33-A, read-out: IC50 in cell proliferation assay, cell line C-33 A
  IC50: 9.87 µM
[2]; Homo sapiens, CAL-27, read-out: IC50 in cell proliferation assay, cell line CAL-27
  IC50: 8.89 µM
[2]; Homo sapiens, CCF-STTG1, read-out: IC50 in cell proliferation assay, cell line CCF-STTG1
  IC50: > 31.6 µM
[2]; Homo sapiens, CCRF-CEM, read-out: IC50 in cell proliferation assay, cell line CCRF-CEM
  IC50: 0.916 µM
[2]; Homo sapiens, COLO 205, read-out: IC50 in cell proliferation assay, cell line COLO 205 (BRAF p.V600E)
  IC50: 20.5 µM
[2]; Homo sapiens, COLO-829, read-out: IC50 in cell proliferation assay, cell line COLO 829 (BRAF p.V600E)
  IC50: > 31.6 µM
[2]; Homo sapiens, DLD-1, read-out: IC50 in cell proliferation assay, cell line DLD-1
  IC50: 18.5 µM
[2]; Homo sapiens, DU-4475, read-out: IC50 in cell proliferation assay, cell line DU4475 (BRAF p.V600E)
  IC50: > 31.6 µM
[2]; Homo sapiens, Daoy, read-out: IC50 in cell proliferation assay, cell line Daoy
  IC50: 12.1 µM
[2]; Homo sapiens, DoTc2-4510, read-out: IC50 in cell proliferation assay, cell line DoTc2 4510
  IC50: 8.98 µM
[2]; Homo sapiens, EOL1, read-out: IC50 in cell proliferation assay, cell line EoL-1 (FIP1L1-PDGFRA)
  IC50: 0.033 µM
[2]; Homo sapiens, FaDu, read-out: IC50 in cell proliferation assay, cell line FaDu
  IC50: 18.7 µM
[2]; Homo sapiens, G-361, read-out: IC50 in cell proliferation assay, cell line G-361 (BRAF p.V600E)
  IC50: 22.1 µM
[2]; Homo sapiens, HCC827, read-out: IC50 in cell proliferation assay, cell line HCC827 (EGFR exon19del)
  IC50: 2.18 µM
[2]; Homo sapiens, HCC4006, read-out: IC50 in cell proliferation assay, cell line HCC4006 (EGFR exon19del)
  IC50: 26 µM
[2]; Homo sapiens, HCT-15, read-out: IC50 in cell proliferation assay, cell line HCT 15
  IC50: > 31.6 µM
[2]; Homo sapiens, HCT-116, read-out: IC50 in cell proliferation assay, cell line HCT 116
  IC50: 27.6 µM
[2]; Homo sapiens, HEC-1, read-out: IC50 in cell proliferation assay, HEC-1 cell line
  IC50: 11.2 µM
[2]; Homo sapiens, HEC-1B, read-out: IC50 in cell proliferation assay, HEC-1-B cell line (EGFR p.A864V)
  IC50: 4.51 µM
[2]; Homo sapiens, HL-60, read-out: IC50 in cell proliferation assay, HL-60 cell line
  IC50: 4.97 µM
[2]; Homo sapiens, HT, read-out: IC50 in cell proliferation assay, HT cell line
  IC50: 4.63 µM
[2]; Homo sapiens, HT-1080, read-out: IC50 in cell proliferation assay, HT-1080 cell line
  IC50: 3.97 µM
[2]; Homo sapiens, Hs746T, read-out: IC50 in cell proliferation assay, Hs 746.T cell line (MET exon14skip + amplification)
  IC50: 4.43 µM
[2]; Homo sapiens, Hs-578T, read-out: IC50 in cell proliferation assay, Hs 578T cell line
  IC50: 2.62 µM
[2]; Homo sapiens, HuTu80, read-out: IC50 in cell proliferation assay, HuTu 80 cell line
  IC50: 15 µM
[2]; Homo sapiens, J82, read-out: IC50 in cell proliferation assay, J82 cell line
  IC50: 23.8 µM
[2]; Homo sapiens, Jurkat E6.1, read-out: IC50 in cell proliferation assay, Jurkat E6.1 cell line
  IC50: 6.94 µM
[2]; Homo sapiens, K562, read-out: IC50 in cell proliferation assay, K-562 cell line
  IC50: 12.3 µM
[2]; Homo sapiens, KATO III, read-out: IC50 in cell proliferation assay, KATO III cell line (FGFR2 amplification)
  IC50: 23.1 µM
[2]; Homo sapiens, KG-1, read-out: IC50 in cell proliferation assay, KG-1 cell line (FGFR1OP2-FGFR1)
  IC50: > 31.6 µM
[2]; Homo sapiens, KLE, read-out: IC50 in cell proliferation assay, KLE cell line
  IC50: 4.37 µM
[2]; Homo sapiens, KMS-11, read-out: IC50 in cell proliferation assay, KMS-11 cell line (FGFR3 p.Y373C)
  IC50: 11.4 µM
[2]; Homo sapiens, KU812, read-out: IC50 in cell proliferation assay, Ku812 cell line
  IC50: 12.8 µM
[2]; Homo sapiens, Kasumi 1, read-out: IC50 in cell proliferation assay, Kasumi-1 cell line (KIT p.N822K)
  IC50: 5.79 µM
[2]; Homo sapiens, LC-2-ad, read-out: IC50 in cell proliferation assay, LC-2/ad cell line (CCDC6-RET)
  IC50: 0.095 µM
[2]; Homo sapiens, LNCaP-Clone-FGC, read-out: IC50 in cell proliferation assay, LNCaP clone FGC cell line
  IC50: 0.119 µM
[2]; Homo sapiens, LS174T, read-out: IC50 in cell proliferation assay, LS174T cell line
  IC50: 31.2 µM
[2]; Homo sapiens, LS-411N, read-out: IC50 in cell proliferation assay, LS411N cell line (BRAF p.V600E)
  IC50: 26.3 µM
[2]; Homo sapiens, LoVo, read-out: IC50 in cell proliferation assay, LoVo cell line
  IC50: 9.26 µM
[2]; Homo sapiens, MCF7, read-out: IC50 in cell proliferation assay, MCF-7 cell line
  IC50: 11.8 µM
[2]; Homo sapiens, MDA-MB-231, read-out: IC50 in cell proliferation assay, MDA-MB-231 cell line
  IC50: > 31.6 µM
[2]; Homo sapiens, MDA-MB-453, read-out: IC50 in cell proliferation assay, MDA-MB-453 cell line
  IC50: > 31.6 µM
[2]; Homo sapiens, MDA-MB-468, read-out: IC50 in cell proliferation assay, MDA-MB-468 cell line
  IC50: 1.3 µM
[2]; Homo sapiens, MG-63, read-out: IC50 in cell proliferation assay, MG-63 cell line
  IC50: 7.8 µM
[2]; Homo sapiens, MIA PaCa-2, read-out: IC50 in cell proliferation assay, MIA PaCa-2 cell line
  IC50: 12.9 µM
[2]; Homo sapiens, MKN-45, read-out: IC50 in cell proliferation assay, MKN45 cell line (MET amplification)
  IC50: 2.36 µM
[2]; Homo sapiens, MOLM-13, read-out: IC50 in cell proliferation assay, MOLM-13 cell line (FLT3 ITD)
  IC50: 0.004 µM
